Reference: patent US9290476B2, “Methylene linked quinolinyl modulators of RORγt” (Janssen Pharmaceutica NV, priority 2012, dated 2016)
Counter-ions that a name gives are not always drawn. Like-named read-outs stand apart in the source and are kept apart here.

How the values were obtained:
[1] = molecular target: human RORγt LBD (Homo sapiens (Human), UniProt P51449); assay: RORγt reporter assay (GAL4-RORγt LBD luciferase in HEK293T cells); assay type: cell-based; details: for RORγt reporter Assay, % inhibition @ 6 μM / IC50: HEK293T cells; for IC50: 24 hours compound treatment; for inhibition at 6 µM: HEK-293T, read-out: RORγt reporter Assay, % inhibition @ 6 μM, HEK293T cells, 6 μM
In short: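 HEK293T cells transiently co-transfected with GAL4-DBD–wild-type human RORγt LBD (pBIND) and GAL4-responsive firefly luciferase reporter (pGL4.31); renilla luciferase from pBIND normalises transfection/viability. Cells in phenol-red-free DMEM, 5% lipid-reduced FCS, treated with compound 24 h. Firefly/renilla ratio plotted against compound concentration.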

[2] = molecular target: human RORγt ligand binding domain (RORγt LBD) (Homo sapiens (Human), UniProt P51449); assay: RORγt ThermoFluor assay (thermal shift binding affinity); details: estimated from thermal shift
In short: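 Thermal shift used 0.065 mg/mL RORγt LBD with 60 μM 1,8-ANS in 100 mM Hepes pH 7.0, 10 mM NaCl, 2.5 mM GSH and 0.002% Tween-20, heated at 1 °C/min. Fluorescence was excited at 380–400 nm and emission read at 500 nm.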

[3] = tested on: IL-17 production by CD4 T cells; assay: Human Th17 assay (IL-17 production by CD4 T cells under Th17 differentiation); assay type: cell-based; details: human CD4+ T cells, IL-17 after 3 days, read-out: Human Th17 Assay, IC50 μM
In short: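 Healthy-donor peripheral CD4+ T cells (1.5×10^5/well) preincubated 1 h with titrated compound (0.2% DMSO), then differentiated with anti-CD3/CD28 beads, anti-IL4, anti-IFNγ, IL1β, IL23, IL6, TGFβ and IL2 for 3 days at 37 °C. Supernatant IL-17 quantified by MSD electrochemiluminescence against a standard curve; IC50 fitted.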

Chain of human RORγt LBD (P51449 258-518): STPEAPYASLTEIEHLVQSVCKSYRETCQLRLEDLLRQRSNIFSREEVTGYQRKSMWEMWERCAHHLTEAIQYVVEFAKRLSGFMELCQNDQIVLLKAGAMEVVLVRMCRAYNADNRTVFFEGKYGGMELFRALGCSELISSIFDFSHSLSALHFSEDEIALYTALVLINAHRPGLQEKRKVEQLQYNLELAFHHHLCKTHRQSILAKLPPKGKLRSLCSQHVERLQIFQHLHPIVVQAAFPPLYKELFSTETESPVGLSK
Chain of human RORγt ligand binding domain (RORγt LBD) (P51449 other isoform, or with tags, fused parts or gaps): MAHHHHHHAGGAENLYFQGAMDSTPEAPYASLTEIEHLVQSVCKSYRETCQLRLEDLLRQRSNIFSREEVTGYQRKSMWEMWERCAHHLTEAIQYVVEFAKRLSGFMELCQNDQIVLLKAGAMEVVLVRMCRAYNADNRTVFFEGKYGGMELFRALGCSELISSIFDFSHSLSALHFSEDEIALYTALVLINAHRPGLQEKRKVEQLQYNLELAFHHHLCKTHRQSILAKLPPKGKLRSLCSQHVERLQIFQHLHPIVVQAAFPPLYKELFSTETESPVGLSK

Row | SMILES | RORγt reporter Assay, % inhibition @ 6 μM [1] [%] | IC50 [1] [µM] | Kd [2] [µM] | IC50 [3] [µM] | inhibition at 6 µM [1] [%] | IC50 ([3]; Homo sapiens, CD4+ T, 72 h) [µM]
1 | Cn1cncc1C(O)(c1ccc(Cl)cc1)c1ccc2nc(Cl)c(Cc3ccccc3)c(Cl)c2c1 (stereo not shown) [Example 1, (3-Benzyl-2,4-dichloroquinolin-6-yl)(4-chlorophenyl)(1-methyl-1H-imidazol-5-yl)methanol] |  | 0.35 | 0.018 |  | 72 | 0.59
2 | OC(c1cccnc1)(c1cccc(Cl)c1)c1ccc2nc(Cl)c(Cc3ccc(-n4cccn4)cc3)c(Cl)c2c1 (stereo not shown) [Example 5, (3-(4-(1H-Pyrazol-1-yl)benzyl)-2,4-dichloroquinolin-6-yl)(3-chlorophenyl)(pyridin-3-yl)methanol.TFA] |  | 0.057 | 0.011 |  | 117 | 0.066
3 | CS(=O)(=O)c1ccc(Cc2c(Cl)nc3ccc(C(O)(c4cccnc4)c4cccc(Cl)c4)cc3c2Cl)cc1 (stereo not shown) [Example 8, (3-Chlorophenyl)(2,4-dichloro-3-(4-(methylsulfonyl)benzyl)quinolin-6-yl)(pyridin-3-yl)methanol.TFA] |  | 0.068 | 0.043 |  | 103 | 0.079
4 | OC(c1cccnc1)(c1ccc2nc(Cl)c(Cc3ccc(Cl)cc3)c(Cl)c2c1)c1cncs1 (stereo not shown) [Example 9, (2,4-Dichloro-3-(4-chlorobenzyl)quinolin-6-yl)(pyridin-3-yl)(thiazol-5-yl)methanol.TFA] |  | 0.0065 | 0.00083 |  | 85 | 0.085
5 | Cn1cncc1C(O)(c1ccc(Cl)cc1)c1ccc2nc(Cl)c(Cc3ccc(-n4cccn4)cc3)c(Cl)c2c1 (stereo not shown) [Example 11, (3-(4-(1H-Pyrazol-1-yl)benzyl)-2,4-dichloroquinolin-6-yl)(4-chlorophenyl)(1-methyl-1H-imidazol-5-yl)methanol.TFA] |  | 0.16 | 0.075 |  | 104 | 0.3
6 | CCOc1nc2ccc(C(O)(c3cncs3)c3cncn3C)cc2c(Cl)c1Cc1ccc(-n2cccn2)cc1 (stereo not shown) [Example 16, (3-(4-(1H-Pyrazol-1-yl)benzyl)-4-chloro-2-ethoxyquinolin-6-yl)(1-methyl-1H-imidazol-5-yl)(thiazol-5-yl)methanol.TFA] |  | 0.038 | 0.0066 |  | 104 | 0.054
7 | CCN(C)c1nc2ccc(C(O)(c3ccc(Cl)cc3)c3cncn3C)cc2c(Cl)c1Cc1ccc(-n2cccn2)cc1 (stereo not shown) [Example 17, (3-(4-(1H-Pyrazol-1-yl)benzyl)-4-chloro-2-(ethyl(methyl)amino)quinolin-6-yl)(4-chlorophenyl)(1-methyl-1H-imidazol-5-yl)methanol.TFA] |  | 0.38 | 0.31 |  | 96 | 1.2
8 | COc1ccc(C(O)(c2ccc3nc(OC)c(Cc4ccc(-n5cccn5)cc4)c(Cl)c3c2)c2cncs2)cn1 (stereo not shown) [Example 20A, (3-(4-(1H-Pyrazol-1-yl)benzyl)-4-chloro-2-methoxyquinolin-6-yl)(6-methoxypyridin-3-yl)(thiazol-5-yl)methanol] |  | 0.026 | 0.0038 |  | 101 | 0.015
9 | COc1ccc(C(O)(c2ccc3nc(OC)c(Cc4ccc(-n5cccn5)cc4)c(Cl)c3c2)c2cncn2C)cn1 (stereo not shown) [Example 22, (3-(4-(1H-Pyrazol-1-yl)benzyl)-4-chloro-2-methoxyquinolin-6-yl)(6-methoxypyridin-3-yl)(1-methyl-1H-imidazol-5-yl)methanol.TFA] |  | 0.091 | 0.0028 |  | 96 | 0.016
10 | Cn1cncc1C(O)(c1ccc(C(F)(F)F)nc1)c1ccc2nc(Cl)c(Cc3ccc(-n4cccn4)cc3)c(Cl)c2c1 (stereo not shown) [Example 23, (3-(4-(1H-Pyrazol-1-yl)benzyl)-2,4-dichloroquinolin-6-yl)(1-methyl-1H-imidazol-5-yl)(6-(trifluoromethyl)pyridin-3-yl)methanol.TFA] |  | 0.014 | 0.004 |  | 95 | 0.15
11 | CN(C)c1ccc(C(O)(c2ccc3nc(Cl)c(Cc4ccc(-n5cccn5)cc4)c(Cl)c3c2)c2cncn2C)cc1 (stereo not shown) [Example 25, (3-(4-(1H-Pyrazol-1-yl)benzyl)-2,4-dichloroquinolin-6-yl)(4-(dimethylamino)phenyl)(1-methyl-1H-imidazol-5-yl)methanol.TFA] |  | 0.33 | 0.44 |  | 87 | 0.38
12 | Cn1cncc1C(O)(c1ccc2nc(Cl)c(Cc3ccc(-n4cccn4)cc3)c(Cl)c2c1)c1cncn1C [Example 30, (3-(4-(1H-Pyrazol-1-yl)benzyl)-2,4-dichloroquinolin-6-yl)bis(1-methyl-1H-imidazol-5-yl)methanol.TFA] |  | 0.025 | 0.0022 |  | 98 | 0.063
13 | COc1nc2ccc(C(O)(c3ccc(Cl)cc3)c3cncn3C)cc2c(Cl)c1Cc1ccc(S(C)(=O)=O)cc1 (stereo not shown) [Example 31, (4-Chloro-2-methoxy-3-(4-(methylsulfonyl)benzyl)quinolin-6-yl)(4-chlorophenyl)(1-methyl-1H-imidazol-5-yl)methanol.TFA] |  | 0.19 | 0.064 |  | 103 | 0.28
14 | OC(c1cccnc1)(c1cccc(Cl)c1)c1ccc2nc(Cl)c(Cc3cccs3)c(Cl)c2c1 (stereo not shown) [Example 32, (3-Chlorophenyl)(2,4-dichloro-3-(thiophen-2-ylmethyl)quinolin-6-yl)(pyridin-3-yl)methanol.TFA] |  | 0.11 | 0.033 |  | 103 | 1.8
15 | COc1nc2ccc(C(O)(c3ccc(Cl)cc3)c3cncn3C)cc2c(OC)c1Cc1ccc(-n2cccn2)cc1 (stereo not shown) [Example 34, (3-(4-(1H-Pyrazol-1-yl)benzyl)-2,4-dimethoxyquinolin-6-yl)(4-chlorophenyl)(1-methyl-1H-imidazol-5-yl)methanol.TFA] |  | 0.46 | 0.25 |  | 101 | 1.8
16 | OC(c1ccc(Cl)cc1)(c1cccnc1)c1ccc2nc(Cl)c(Cc3ccc(-n4cccn4)cc3)c(Cl)c2c1 (stereo not shown) [Example 45, (3-(4-(1H-Pyrazol-1-yl)benzyl)-2,4-dichloroquinolin-6-yl)(4-chlorophenyl)(pyridin-3-yl)methanol] |  | 0.13 | 0.068 |  | 103 | 0.1

Results, then the molecule that gave them:

Row | RORγt reporter Assay, % inhibition @ 6 μM [1] [%] | IC50 [1] [µM] | Kd [2] [µM] | IC50 [3] [µM] | inhibition at 6 µM [1] [%] | IC50 ([3]; Homo sapiens, CD4+ T, 72 h) [µM] | SMILES
17 | 97 | 0.018 | 0.0022 | 0.0045 |  |  | COc1nc2ccc(C(O)(c3ccc(C#N)cc3)c3cncn3C)cc2c(C#N)c1Cc1ccc(C(F)(F)F)cc1 (single isomer, unassigned) [Example 96C, 6-((4-cyanophenyl)(hydroxy)(1-methyl-1H-imidazol-5-yl)methyl)-2-methoxy-3-(4-(trifluoromethyl)benzyl)quinoline-4-carbonitrile]
18 |  | 0.0059 | 0.0014 | 0.0034 | 98 |  | COc1nc2ccc(C(O)(c3cnnn3C)C3CN(C(C)=O)C3)cc2c(Cl)c1Cc1ccc(C(F)(F)F)cc1 (single isomer, unassigned) [Example 97B, 1-(3-((4-Chloro-2-methoxy-3-(4-(trifluoromethyl)benzyl)quinolin-6-yl)(hydroxy)(1-methyl-1H-1,2,3-triazol-5-yl)methyl)azetidin-1-yl)ethanone]
19 | 99 | ~0.004 | 0.00064 | 0.015 |  |  | COc1nc2ccc(C(O)(c3cnnn3C)C3CN(C(C)=O)C3)cc2c(Cl)c1Cc1ccc(C(F)(F)F)cc1 (single isomer, unassigned) [Example 97C, 1-(3-((4-Chloro-2-methoxy-3-(4-(trifluoromethyl)benzyl)quinolin-6-yl)(hydroxy)(1-methyl-1H-1,2,3-triazol-5-yl)methyl)azetidin-1-yl)ethanone]
20 |  | 0.18 | 0.053 |  | 100 | 0.2 | COc1nc2c(C)cc(C(O)(c3ccc(Cl)cc3)c3cncn3C)cc2c(Cl)c1Cc1ccc(-n2cccn2)cc1 (stereo not shown) [Example 28A, (3-(4-(1H-Pyrazol-1-yl)benzyl)-4-chloro-2-methoxy-8-methylquinolin-6-yl)(4-chlorophenyl)(1-methyl-1H-imidazol-5-yl)methanol.TFA]
21 |  | 0.18 | 0.04 |  | 98 | 0.1 | COc1nc2ccc(C(O)(c3ccc(Cl)cc3)c3cncn3C)cc2c(Cl)c1Cc1cc2ccccc2s1 (stereo not shown) [Example 36A, (3-(Benzo[b]thiophen-2-ylmethyl)-4-chloro-2-methoxyquinolin-6-yl)(4-chlorophenyl)(1-methyl-1H-imidazol-5-yl)methanol]
22 |  | 0.028 | 0.0078 |  | 100 | 0.12 | COc1nc2ccc(C(O)(c3ccc(C(F)(F)F)nc3)c3cncn3C)cc2c(Cl)c1Cc1cc2ccccc2s1 (stereo not shown) [Example 37A, (3-(Benzo[b]thiophen-2-ylmethyl)-4-chloro-2-methoxyquinolin-6-yl)(1-methyl-1H-imidazol-5-yl)(6-(trifluoromethyl)pyridin-3-yl)methanol.TFA]
